For assay [1], the target named is recombinant human GAA (acid alpha-glucosidase) (Homo sapiens, UniProt P10253). The assay can be described thus: Acid alpha-glucosidase (GAA) assay (4-methylumbelliferyl-alpha-D-pyranoside substrate, fluorescence). It counts as biochemical. The gist of the method: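 IC50 from 4-PL curve fit of percent inhibition, based on fluorescence (365/440 nm) of released methylumbelliferone relative to uninhibited enzyme. Compound dilutions and human GAA incubated 60 min, 37 °C, before 20 min substrate reaction at 37 °C, quenched at pH 10.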

The target of assay [2] is T1, recombinant human GBA (beta-glucocerebrosidase) (Homo sapiens, UniProt P04062).
T1 sequence (P04062 40-536): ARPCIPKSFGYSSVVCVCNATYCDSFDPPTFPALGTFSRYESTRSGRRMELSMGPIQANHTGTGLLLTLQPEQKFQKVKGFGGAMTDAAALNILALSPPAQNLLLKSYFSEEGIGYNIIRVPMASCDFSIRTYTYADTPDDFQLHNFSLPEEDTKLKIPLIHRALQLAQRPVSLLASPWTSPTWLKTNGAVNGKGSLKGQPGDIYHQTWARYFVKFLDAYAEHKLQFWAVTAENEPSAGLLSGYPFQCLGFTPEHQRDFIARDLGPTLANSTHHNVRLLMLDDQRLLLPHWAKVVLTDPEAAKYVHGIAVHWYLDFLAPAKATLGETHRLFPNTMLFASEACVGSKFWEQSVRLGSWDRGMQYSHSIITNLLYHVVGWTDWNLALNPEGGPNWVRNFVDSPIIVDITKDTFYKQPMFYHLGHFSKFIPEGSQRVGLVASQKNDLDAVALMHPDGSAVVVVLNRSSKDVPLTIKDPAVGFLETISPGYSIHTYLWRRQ
The assay can be described thus: Beta-glucocerebrosidase (GBA, glucosylceramidase) assay (4-methylumbelliferyl-beta-D-pyranoside substrate, fluorescence). It counts as biochemical. The essentials:
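IC50 by four-parameter fit of percent inhibition, with product fluorescence (365/440 nm) read after a glycine/NaOH pH 10 stop. Compound and commercial recombinant human enzyme were incubated 60 min at 37 °C before a further 60 min at 37 °C with 4-methylumbelliferyl-beta-D-pyranoside substrate.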

SMILES strings stand for the structures. pIC50: −log10 of the molar value.

With `Cc1cc(NCc2cccc(CN3C[C@H](O)[C@@H](O)[C@H](O)[C@H]3CO)c2)cc(N2CCOCC2)c1` [Compound 1031, (2R,3R,4R,5S)-2-(hydroxymethyl)-1-{[3-({[3-methyl-5-(morpholin-4-yl)phenyl]amino}methyl)phenyl]methyl}piperidine-3,4,5-triol], the pIC50 (commonly the IC50 on a negative log10 scale, so that one unit is a factor of ten) was 5.28 in assay [1] and less than 4.00 in assay [2].

Turning to `Cc1cc(NCc2cccc(CN3C[C@H](O)[C@@H](O)[C@H](O)[C@H]3CO)c2)cc(C2=COCCO2)c1` [Compound 1032, (2R,3R,4R,5S)-1-{[3-({[3-(5,6-dihydro-1,4-dioxin-2-yl)-5-methylphenyl]amino}methyl)phenyl]methyl}-2-(hydroxymethyl)piperidine-3,4,5-triol], the figures for the pIC50 in assay [1] and in assay [2] were 5.38 and less than 4.00, respectively.

Take `Cc1cc(NCc2cccc(CN3C[C@H](O)[C@@H](O)[C@H](O)[C@H]3CO)c2)cc(-c2ccc[nH]2)c1` [Compound 1033, (2R,3R,4R,5S)-2-(hydroxymethyl)-1-{[3-({[3-methyl-5-(1H-pyrrol-2-yl)phenyl]amino}methyl)phenyl]methyl}piperidine-3,4,5-triol]: the pIC50 was 5.27 in assay [1] and less than 4.00 in assay [2].

`Cc1cc(NCc2cccc(CN3C[C@H](O)[C@@H](O)[C@H](O)[C@H]3CO)c2)cc(-c2cccnn2)c1` [Compound 1034, (2R,3R,4R,5S)-2-(hydroxymethyl)-1-{[3-({[3-methyl-5-(pyridazin-3-yl)phenyl]amino}methyl)phenyl]methyl}piperidine-3,4,5-triol]: the pIC50 in assay [1] is 5.57; in assay [2], 4.04.

For `CS(=O)(=O)c1cc(NCc2cccc(CN3C[C@H](O)[C@@H](O)[C@H](O)[C@H]3CO)c2)cc(N2CCOCC2)c1` [Compound 1036, (2R,3R,4R,5S)-2-(hydroxymethyl)-1-{[3-({[3-methanesulfonyl-5-(morpholin-4-yl)phenyl]amino}methyl)phenyl]methyl}piperidine-3,4,5-triol], the pIC50 in assay [1] was 5.56; in assay [2] it was less than 4.00.

On to `N#Cc1cc(NCc2cccc(CN3C[C@H](O)[C@@H](O)[C@H](O)[C@H]3CO)c2)cc(N2CCOCC2)c1` [Compound 1042, 3-(morpholin-4-yl)-5-{[(3-{[(2R,3R,4R,5S)-3,4,5-trihydroxy-2-(hydroxymethyl)piperidin-1-yl]methyl}phenyl)methyl]amino}benzonitrile], for which the pIC50 in assay [1] was 5.74; in assay [2], less than 4.00.

In the case of `OC[C@@H]1[C@@H](O)[C@H](O)[C@@H](O)CN1CCCCCCNc1cc(Cl)cc(-c2ncco2)c1` [Compound 1211, (2R,3R,4R,5S)-1-(6-{[3-chloro-5-(1,3-oxazol-2-yl)phenyl]amino}hexyl)-2-(hydroxymethyl)piperidine-3,4,5-triol], the negative logarithm of the IC50 (pIC50) in assay [1] is 7.80; in assay [2], 6.49.

As for `OC[C@@H]1[C@@H](O)[C@H](O)[C@@H](O)CN1CCCCCCNc1cc(Cl)cc(-c2ncccn2)c1` [Compound 1212, (2R,3R,4R,5S)-1-(6-{[3-chloro-5-(pyrimidin-2-yl)phenyl]amino}hexyl)-2-(hydroxymethyl)piperidine-3,4,5-triol], the values for the negative logarithm of the IC50 (pIC50) in assay [1] and in assay [2] were 7.33 and 6.41, respectively.

Turning to `COc1cc(NCCCCCCN2C[C@H](O)[C@@H](O)[C@H](O)[C@H]2CO)cc(-c2ncco2)c1` [Compound 1216, (2R,3R,4R,5S)-2-(hydroxymethyl)-1-(6-{[3-methoxy-5-(1,3-oxazol-2-yl)phenyl]amino}hexyl)piperidine-3,4,5-triol], the pIC50 is 7.43 in assay [1] and 5.67 in assay [2].

Regarding `COc1cc(NCCCCCCN2C[C@H](O)[C@@H](O)[C@H](O)[C@H]2CO)cc(-c2ncccn2)c1` [Compound 1217, (2R,3R,4R,5S)-2-(hydroxymethyl)-1-(6-{[3-methoxy-5-(pyrimidin-2-yl)phenyl]amino}hexyl)piperidine-3,4,5-triol], the results for the negative-log IC50 (pIC50) in assay [1] and in assay [2] were 8.00 and 6.01, respectively.

In the case of `COc1cc(NCCCCCCN2C[C@H](O)[C@@H](O)[C@H](O)[C@H]2CO)cc(-c2ncc[nH]2)c1` [Compound 1219, (2R,3R,4R,5S)-2-(hydroxymethyl)-1-(6-{[3-(1H-imidazol-2-yl)-5-methoxyphenyl]amino}hexyl)piperidine-3,4,5-triol], the pIC50 in assay [1] is 7.05; in assay [2], 5.06.

On to `COCCCCCN(CCCNc1ccc(N=[N+]=[N-])cc1[N+](=O)[O-])CCCN1C[C@H](O)[C@@H](O)[C@H](O)[C@H]1CO` [Compound 1221, (2R,3R,4R,5S)-1-[3-({3-[(4-azido-2-nitrophenyl)amino]propyl}(5-methoxypentyl)amino)propyl]-2-(hydroxymethyl)piperidine-3,4,5-triol], for which the pIC50 in assay [1] was 5.35; in assay [2], 7.24.

For the molecule `NC(=O)CCN(CCNc1ccc(-c2ncccn2)cc1[N+](=O)[O-])CCN1C[C@H](O)[C@@H](O)[C@H](O)[C@H]1CO` [Compound 1226, 3-[(2-{[2-nitro-4-(pyrimidin-2-yl)phenyl]amino}ethyl)({2-[(2R,3R,4R,5S)-3,4,5-trihydroxy-2-(hydroxymethyl)piperidin-1-yl]ethyl})amino]propanamide], the pIC50 is 4.68 in assay [1] and 5.49 in assay [2].

As to `O=S(=O)(Nc1cc(-c2ncccn2)ccc1NCCCCCCN1C[C@H](O)[C@@H](O)[C@H](O)[C@H]1CO)C1CC1` [Compound 1227, N-[5-(pyrimidin-2-yl)-2-({6-[(2R,3R,4R,5S)-3,4,5-trihydroxy-2-(hydroxy-methyl)piperidin-1-yl]hexyl}amino)phenyl]cyclopropanesulfonamide], the pIC50 was 7.09 in assay [1] and 6.23 in assay [2].

Consider `OC[C@@H]1[C@@H](O)[C@H](O)[C@@H](O)CN1CCCCCCNc1ccc(-c2ncccn2)cc1Cl` [Compound 1228, (2R,3R,4R,5S)-1-(6-{[2-chloro-4-(pyrimidin-2-yl)phenyl]amino}hexyl)-2-(hydroxymethyl)piperidine-3,4,5-triol], for which the pIC50 was 7.17 in assay [1] and 6.08 in assay [2].

For the molecule `OC[C@@H]1[C@@H](O)[C@H](O)[C@@H](O)CN1CCCCCCNc1ccc(-c2ncccn2)cc1F` [Compound 1229, (2R,3R,4R,5S)-1-(6-{[2-fluoro-4-(pyrimidin-2-yl)phenyl]amino}hexyl)-2-(hydroxymethyl)piperidine-3,4,5-triol], the pIC50 is 7.09 in assay [1] and 6.02 in assay [2].

Take `COc1cc(-c2ncccn2)ccc1NCCCCCCN1C[C@H](O)[C@@H](O)[C@H](O)[C@H]1CO` [Compound 1231, (2R,3R,4R,5S)-2-(hydroxymethyl)-1-(6-{[2-methoxy-4-(pyrimidin-2-yl)phenyl]amino}hexyl)piperidine-3,4,5-triol]: the pIC50 in assay [1] is 7.04; in assay [2] it was 5.68.

With `Cc1cc(-c2ncccn2)ccc1NCCCCCCN1C[C@H](O)[C@@H](O)[C@H](O)[C@H]1CO` [Compound 1233, (2R,3R,4R,5S)-2-(hydroxymethyl)-1-(6-{[2-methyl-4-(pyrimidin-2-yl)phenyl]amino}hexyl)piperidine-3,4,5-triol], the pIC50 was 5.99 in assay [1] and 5.88 in assay [2].

Consider `[N-]=[N+]=Nc1ccc(NCCN(CCC(N)=O)CCN2C[C@H](O)[C@@H](O)[C@H](O)[C@H]2CO)c([N+](=O)[O-])c1` [Compound 1235], for which the values for the pIC50 in assay [1] and in assay [2] were 4.42 and 4.94, respectively.

These data come from patent US20250197372A1 (priority 2020, published 2025).
